Read-outs that look alike come from different tables or passages of the source.
Key:
[1] = target: T1, h-GABA-A α5β3γ2 (Homo sapiens (Human), UniProt P18507+P31644); assay: [3H]flumazenil competition binding assay, membranes of HEK293 cells expressing human GABAA receptors
Procedure, shortened: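 Displacement of [3H]flumazenil from membranes of HEK293 cells transiently expressing human α5β3γ2 receptors, in Krebs-tris buffer pH 7.5. Incubation to equilibrium, 1 h at 4° C., then filtration and scintillation counting. Ki is the mean of two determinations.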

[2] = target: T1, h-GABA-A α5β3γ2; assay: Two-electrode voltage clamp electrophysiology in Xenopus oocytes expressing GABAA receptors, modulation of GABA EC20 current; type: cell-based
Procedure, shortened: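 Values are % modulation of an EC20 GABA response, derived point by point from the ratio of compound-exposed versus control current traces (extremum taken, 100×(fold−1)). Recordings used oocytes injected with human α5, β3, γ2 mRNA, clamped at −80 mV at room temperature, at least 3 oocytes each.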

[3] = displacement of [3H]flumazenil 0.5 nM, HEK293 cells expressing human receptors, mean of two determinations, read-out: Ki h-GABA-A α5β3γ2
[4] = % modulation of GABA EC20 = 100*(Fold increase−1), Xenopus oocytes
[5] = Xenopus oocytes, GABA EC20, test compound at approx. 30 fold its Ki
[6] = reference compounds, GABAA receptor α5β3γ2, read-out: Ki α5-human
[7] = reference compounds, % modulation of GABA EC20
[8] = reference compounds, GABAA α5β3γ2 overexpressing oocytes, GABA EC20

Structure (SMILES) | Ki [1, 3] [nM] | Efficacy (GABA) % [2, 4] [%] | Fold increase h-GABA-A α5β3γ2 oocyte [2, 5] | Ki [1, 6] [nM] | Efficacy (GABA) % [2, 7] [%] | Fold increase h-GABA-A α5β3γ2 oocyte [2, 8]
CCC[C@@H](CO)NC(=O)c1ccc(OCc2c(-c3ccc(C)nc3)noc2C2CC2)nc1 [Example 5, 6-((5-cyclopropyl-3-(6-methyl-3-pyridyl)isoxazol-4-yl)methoxy)-N-((1S)-1-(hydroxymethyl)butyl)pyridine-3-carboxamide] | 58.6 | 245 | 3.45 |  |  | 
Cc1ccc(-c2noc(C)c2COc2cnc(C(=O)NCC3CC3)cn2)cn1 [Example 95, N-(cyclopropylmethyl)-5-((5-methyl-3-(6-methylpyridin-3-yl)isoxazol-4-yl)methoxy)pyrazine-2-carboxamide] | 13.4 | 67 | 1.67 |  |  | 
CO[C@H]1C[C@H](NC(=O)c2ccc(OCc3c(-c4ccc(C)nc4)noc3C)nn2)C1 [Example 163, trans-N-(3-methoxycyclobutyl)-6-((5-methyl-3-(6-methyl-3-pyridyl)isoxazol-4-yl)methoxy)pyridazine-3-carboxamide] | 8.6 | 98 | 1.98 |  |  | 
Cc1onc(-c2ccc(Cl)nc2)c1COc1ccc(C(=O)NC2CC3(COC3)C2)nn1 [Example 162, 6-((3-(6-chloropyridin-3-yl)-5-methylisoxazol-4-yl)methoxy)-N-(2-oxaspiro[3.3]heptan-6-yl)pyridazine-3-carboxamide] | 11.2 | 37 | 1.37 |  |  | 
CCc1onc(-c2ccc(C)nc2)c1COc1ccc(C(=O)NC2CCS(=O)(=O)CC2)cn1 [Example 120, N-(1,1-dioxidotetrahydro-2H-thiopyran-4-yl)-6-((5-ethyl-3-(6-methylpyridin-3-yl)isoxazol-4-yl)methoxy)pyridine-3-carboxamide] | 52.1 | 160 | 2.6 |  |  | 
Cc1ccc(-c2noc(C)c2COc2ccc(C(N)=O)cn2)cn1 [Example 17, 6-((5-methyl-3-(6-methylpyridin-3-yl)isoxazol-4-yl)methoxy)nicotinamide] | 9.8 | 60 | 1.6 |  |  | 
Cc1ccc(-c2noc(C)c2COc2ccc(C(=O)N[C@@H]3C[C@@H]4CC[C@@H]3O4)nn2)cn1 (single isomer, unassigned) [Example 189] | 18.8 | 86 | 1.86 |  |  | 
Cc1ccc(-c2noc(C)c2COc2ccc(C(=O)NC3CCS(=O)(=O)C3)cn2)cn1 (stereo not drawn) [Example 16, N-(1,1-dioxothiolan-3-yl)-6-((5-methyl-3-(6-methyl-3-pyridyl)isoxazol-4-yl)methoxy)pyridine-3-carboxamide] | 19.2 | 85 | 1.85 |  |  | 
Cc1ccc(-c2noc(C)c2COc2ccc(C(=O)N[C@H]3CC[C@@](C)(O)CC3)nn2)cn1 [Example 148, N-((1s,4s)-4-hydroxy-4-methylcyclohexyl)-6-((5-methyl-3-(6-methylpyridin-3-yl)isoxazol-4-yl)methoxy)pyridazine-3-carboxamide] | 13.8 | 77 | 1.77 |  |  | 
Cc1ccc(-c2noc(C)c2COc2ccc(C(=O)NC3CC3)nn2)cn1 [Example 26, N-cyclopropyl-6-((5-methyl-3-(6-methylpyridin-3-yl)isoxazol-4-yl)methoxy)pyridazine-3-carboxamide] | 5.2 | 80 | 1.8 |  |  | 
Cc1ccc(-c2noc(C)c2COc2ccc(C(=O)N[C@H]3CC[C@](O)(C(F)(F)F)C3)nn2)cn1 (single isomer, unassigned) [Example 150] | 16.7 | 69 | 1.69 |  |  | 
Cc1ccc(-c2noc(C)c2COc2ccc(C(=O)NCC(C)C)cn2)cn1 [Example 11, N-isobutyl-6-((5-methyl-3-(6-methylpyridin-3-yl)isoxazol-4-yl)methoxy)nicotinamide] | 11.2 | 55 | 1.55 |  |  | 
Cc1ccc(-c2noc(C)c2COc2cnc(C(=O)N[C@H]3CC[C@@](C)(O)CC3)cn2)cn1 [Example 104, N-(cis-4-hydroxy-4-methylcyclohexyl)-5-((5-methyl-3-(6-methylpyridin-3-yl)isoxazol-4-yl)methoxy)pyrazine-2-carboxamide] | 66.3 | 43 | 1.43 |  |  | 
Cc1onc(-c2cccnc2)c1COc1ccc(C(=O)NC2CCOCC2)cn1 [RO-159, reference compound] |  |  |  | 28 | −12 | 0.88
Cc1ccc(-c2noc(CF)c2COc2ccc(C(=O)NC3CCOCC3)nn2)cn1 [Example 168, 6-((5-(fluoromethyl)-3-(6-methylpyridin-3-yl)isoxazol-4-yl)methoxy)-N-(tetrahydropyran-4-yl)pyridazine-3-carboxamide] | 32.4 | 102 | 2.02 |  |  | 
O=C(NC1CC2(COC2)C1)c1ccc(OCc2c(-c3ccc(Cl)nc3)noc2C2CC2)nn1 [Example 178, 6-((3-(6-chloropyridin-3-yl)-5-cyclopropylisoxazol-4-yl)methoxy)-N-(2-oxaspiro[3.3]heptan-6-yl)pyridazine-3-carboxamide] | 42.9 | 73 | 1.73 |  |  | 
Cc1ccc(-c2noc(C)c2COc2ccc(C(=O)NC3(C)CCS(=O)(=O)CC3)nn2)cn1 [Example 111, N-(4-methyl-1,1-dioxidotetrahydro-2H-thiopyran-4-yl)-6-((5-methyl-3-(6-methylpyridin-3-yl)isoxazol-4-yl)methoxy)pyridazine-3-carboxamide] | 4.6 | 89 | 1.89 |  |  | 
CCO[C@H]1CC[C@H](NC(=O)c2ccc(OCc3c(-c4ccc(C)nc4)noc3C)nn2)CC1 [Example 195, N-(4-ethoxycyclohexyl)-6-((5-methyl-3-(6-methylpyridin-3-yl)-1,2-oxazol-4-yl)methoxy)pyridazine-3-carboxamide] | 17.3 | 78 | 1.78 |  |  | 
Cc1ccc(-c2noc(C)c2COc2ccc(C(=O)N3CC(F)C3)nn2)cn1 [Example 65, (3-fluoroazetidin-1-yl)(6-((5-methyl-3-(6-methylpyridin-3-yl)isoxazol-4-yl)methoxy)pyridazin-3-yl)methanone] | 7.2 | 62 | 1.62 |  |  | 
Cc1onc(-c2ccccn2)c1COc1ccc(C(=O)NC2CCOCC2)nn1 [RO-094, reference compound] |  |  |  | 2.9 | −18 | 0.82
Cc1onc(-c2ccc(C(F)(F)F)nc2)c1COc1ccc(C(=O)NC2CCOCC2)nn1 [Example 185, 6-((5-methyl-3-(6-(trifluoromethyl)pyridin-3-yl)isoxazol-4-yl)methoxy)-N-(tetrahydropyran-4-yl)pyridazine-3-carboxamide] | 70.7 | 124 | 2.24 |  |  | 
Cc1ccc(-c2noc(C)c2COc2ccc(C(=O)N3CC(C#N)C3)nn2)cn1 [Example 84, 1-(6-((5-methyl-3-(6-methylpyridin-3-yl)isoxazol-4-yl)methoxy)pyridazine-3-carbonyl)azetidine-3-carbonitrile] | 19 | 54 | 1.54 |  |  | 
Cc1ccc(-c2noc(C)c2COc2ccc(C(=O)N[C@H]3CCCOC3)nn2)cn1 [Example 103, (S)-6-((5-methyl-3-(6-methylpyridin-3-yl)isoxazol-4-yl)methoxy)-N-(tetrahydropyran-3-yl)pyridazine-3-carboxamide] | 79 | 81 | 1.81 |  |  | 
Cc1ccc(-c2noc(C(F)F)c2COc2ccc(C(=O)NC3CCOCC3)cn2)cn1 [Example 126, 6-((5-(difluoromethyl)-3-(6-methyl-3-pyridyl)isoxazol-4-yl)methoxy)-N-tetrahydropyran-4-yl-pyridine-3-carboxamide] | 49.8 | 49 | 1.49 |  |  | 
CCO[C@@H]1CC[C@@H](NC(=O)c2ccc(OCc3c(-c4ccc(C)nc4)noc3C)nn2)C1 [Example 190, N-((1R,3R)-3-ethoxycyclopentyl)-6-((5-methyl-3-(6-methylpyridin-3-yl)isoxazol-4-yl)methoxy)pyridazine-3-carboxamide] | 12.7 | 63 | 1.63 |  |  | 
Cc1ccc(-c2noc(C)c2COc2ccc(C(=O)NCC3CC3)nn2)cn1 [Example 31, N-(cyclopropylmethyl)-6-((5-methyl-3-(6-methylpyridin-3-yl)isoxazol-4-yl)methoxy)pyridazine-3-carboxamide] | 14.2 | 102 | 2.02 |  |  | 
CCC[C@@H](CO)NC(=O)c1ccc(OCc2c(-c3ccc(C)nc3)noc2C)nn1 [Example 7, (S)—N-(1-hydroxypentan-2-yl)-6-((5-methyl-3-(6-methylpyridin-3-yl)isoxazol-4-yl)methoxy)pyridazine-3-carboxamide] | 25.6 | 102 | 2.02 |  |  | 
